# Measurements taken from ChEMBL document CHEMBL6083219, “Rationally designed febuxostat-based hydroxamic acid and its pH-Responsive nanoformulation elicits anti-tumor activity” (Eur J Med Chem, 2024).
# Activity calls are given as the source filed them. No cut-off for these calls is given here.
# Legend:
# [1] = tested on: HL-60; assay: Upregulation of acetylated histone H3 level in human HL-60 cells by Western blotting analysis; assay type: functional, cell-based; conditions: dose 0.5-2 µM
# [2] = tested on: HL-60; assay: Cytotoxicity against human HL-60 cells incubated for 1 day by MTT assay; assay type: functional, cell-based; conditions: HL-60, 24 h
# [3] = tested on: Rattus norvegicus; assay: Anti-hyperuricemic activity against potassium oxonate-induced hyperuricemia Wistar rat model assessed as improvement in renal condition at 5 mg/kg by measuring decrease in enlargement of glomeruli measured after 14 days by H and E staining based assay; assay type: functional, organism-based; conditions: time 14.0 day
# [4] = tested on: HL-60; assay: Upregulation of acetylated alpha tubulin level in human HL-60 cells by Western blotting analysis; assay type: functional, cell-based; conditions: dose 0.5-2 µM
# [5] = tested on: MDA-MB-231; assay: Upregulation of acetylated histone H3 level in human MDA-MB-231 cells by Western blotting analysis; assay type: functional, cell-based; conditions: dose 0.5-2 µM
# [6] = tested on: Rattus norvegicus; assay: Anti-hyperuricemic activity against potassium oxonate-induced hyperuricemia Wistar rat model assessed as increase in lymphocytes at 5 mg/kg measured after 14 days; assay type: functional, organism-based; conditions: time 14.0 day
# [7] = tested on: MDA-MB-231; assay: Downregulation of HDAC1 expression level in human MDA-MB-231 cells at 0.5 to 2 uM by Western blotting analysis; assay type: functional, cell-based; conditions: dose 0.5-2 µM
# [8] = tested on: Rattus norvegicus; assay: Anti-hyperuricemic activity against potassium oxonate-induced hyperuricemia Wistar rat model assessed as enhancement in complete blood count at 10 mg/kg measured after 14 days; assay type: functional, organism-based; conditions: time 14.0 day
# [9] = tested on: Rattus norvegicus; assay: Anti-hyperuricemic activity against potassium oxonate-induced hyperuricemia Wistar rat model assessed as increase in platelet counts at 5 mg/kg measured after 14 days; assay type: functional, organism-based; conditions: time 14.0 day
# [10] = tested on: HL-60; assay: Downregulation of mTOR expression level in human HL-60 cells at 0.5 to 2 uM by Western blotting analysis; assay type: functional, cell-based; conditions: dose 0.5-2 µM
# [11] = molecular target: Xanthine dehydrogenase/oxidase (Bos taurus, UniProt P80457); assay: Inhibition of bovine milk xanthine oxidase
# [12] = tested on: Rattus norvegicus; assay: Anti-hyperuricemic activity against potassium oxonate-induced hyperuricemia Wistar rat model assessed as decrease in serum creatinine level at 5 to 10 mg/kg measured after 14 days; assay type: functional, organism-based; conditions: dose 5-10 mg/kg, time 14.0 day
# [13] = tested on: Rattus norvegicus; assay: Anti-hyperuricemic activity against potassium oxonate-induced hyperuricemia Wistar rat model assessed as improvement in renal condition by measuring decrease in tubular cell swelling at 10 mg/kg measured after 14 days by H and E staining based assay; assay type: functional, organism-based; conditions: time 14.0 day
# [14] = tested on: MDA-MB-231; assay: Downregulation of HDAC3 expression level in human MDA-MB-231 cells at 0.5 to 2 uM by Western blotting analysis; assay type: functional, cell-based; conditions: dose 0.5-2 µM
# [15] = tested on: Rattus norvegicus; assay: Anti-hyperuricemic activity against potassium oxonate-induced hyperuricemia Wistar rat model assessed as improvement in renal condition at 5 mg/kg by measuring decrease in degeneration of tubular cells measured after 14 days by H and E staining based assay; assay type: functional, organism-based; conditions: time 14.0 day
# [16] = tested on: Rattus norvegicus; assay: Anti-hyperuricemic activity against potassium oxonate-induced hyperuricemia Wistar rat model assessed as increase in monocytes at 5 mg/kg measured after 14 days; assay type: functional, organism-based; conditions: time 14.0 day
# [17] = tested on: Rattus norvegicus; assay: Anti-hyperuricemic activity against potassium oxonate-induced hyperuricemia Wistar rat model assessed as reduction in DCT expansion at 10 mg/kg measured after 14 days by H and E staining based assay; assay type: functional, organism-based; conditions: time 14.0 day
# [18] = tested on: Rattus norvegicus; assay: Anti-hyperuricemic activity against potassium oxonate-induced hyperuricemia Wistar rat model assessed as increase in neutrophils at 5 mg/kg measured after 14 days; assay type: functional, organism-based; conditions: time 14.0 day
# [19] = tested on: Rattus norvegicus; assay: Anti-hyperuricemic activity against potassium oxonate-induced hyperuricemia Wistar rat model assessed as decrease in number of eosinophils at 5 mg/kg measured after 14 days; assay type: functional, organism-based; conditions: time 14.0 day
# [20] = tested on: MDA-MB-231; assay: Downregulation of HDAC6 expression level in human MDA-MB-231 cells at 0.5 to 2 uM by Western blotting analysis; assay type: functional, cell-based; conditions: dose 0.5-2 µM
# [21] = tested on: Rattus norvegicus; assay: Anti-hyperuricemic activity against potassium oxonate-induced hyperuricemia Wistar rat model assessed as decrease in number of basophils at 5 mg/kg measured after 14 days; assay type: functional, organism-based; conditions: time 14.0 day
# [22] = tested on: HL-60; assay: Induction of apoptosis in human HL-60 cells assessed as morphological changes at 0.5 to 2 uM by DAPI staining based microscopic analysis; assay type: functional, cell-based; conditions: dose 0.5-2 µM
# [23] = tested on: HL-60; assay: Antitumor activity against human HL-60 cells xenografted in BALB/c nude mouse model assessed as reduction in tumor volume at 50 to 100 mg/kg, ip measured twice a week for 22 days; assay type: functional, organism-based; conditions: dose 50-100 mg/kg, time 22.0 day
# [24] = tested on: HL-60; assay: Downregulation of HDAC3 expression level in human HL-60 cells at 0.5 to 2 uM by Western blotting analysis; assay type: functional, cell-based; conditions: dose 0.5-2 µM
# [25] = Cytotoxicity against mouse L929 cells incubated for 1 day by MTT assay; assay type: toxicity, cell-based
# [26] = tested on: Rattus norvegicus; assay: Anti-hyperuricemic activity against potassium oxonate-induced hyperuricemia Wistar rat model assessed as improvement in renal condition by measuring normal glomeruli size at 10 mg/kg measured after 14 days by H and E staining based assay; assay type: functional, organism-based; conditions: time 14.0 day
# [27] = tested on: MDA-MB-231; assay: Induction of apoptosis in human MDA-MB-231 cells assessed as G2/M phase arrest at 0.5 to 1 uM incubated for 48 hrs; assay type: functional, cell-based; conditions: dose 0.5-1 µM
# [28] = tested on: Rattus norvegicus; assay: Anti-hyperuricemic activity against potassium oxonate-induced hyperuricemia Wistar rat model assessed as decrease in serum uric acid level at 2.5 mg/kg measured after 14 days; assay type: functional, organism-based; conditions: time 14.0 day
# [29] = tested on: Rattus norvegicus; assay: Anti-hyperuricemic activity against potassium oxonate-induced hyperuricemia Wistar rat model assessed as improvement in renal condition by measuring normal glomeruli appearance at 10 mg/kg measured after 14 days by H and E staining based assay; assay type: functional, organism-based; conditions: time 14.0 day
# [30] = tested on: HL-60; assay: Upregulation of cleaved caspase-3 expression level in human HL-60 cells at 0.5 to 2 uM by Western blotting analysis; assay type: functional, cell-based; conditions: dose 0.5-2 µM
# [31] = tested on: Rattus norvegicus; assay: Anti-hyperuricemic activity against potassium oxonate-induced hyperuricemia Wistar rat model assessed as decrease in blood urea level at 5 to 10 mg/kg measured after 14 days; assay type: functional, organism-based; conditions: dose 5-10 mg/kg, time 14.0 day
# [32] = tested on: HL-60; assay: Induction of autophagy in human HL-60 cells at 0.5 to 2 uM by acridine orange staining based microscopic assay; assay type: functional, cell-based; conditions: dose 0.5-2 µM
# [33] = tested on: MDA-MB-231; assay: Upregulation of acetylated tubulin level in human MDA-MB-231 cells by Western blotting analysis; assay type: functional, cell-based; conditions: dose 0.5-2 µM
# [34] = tested on: Rattus norvegicus; assay: Anti-hyperuricemic activity against potassium oxonate-induced hyperuricemia Wistar rat model assessed as effect on complete blood count at 2.5 mg/kg measured after 14 days; assay type: functional, organism-based; conditions: time 14.0 day
# [35] = tested on: Mitochondrial membrane; assay: Induction of mitochondrial membrane potential loss in human HL-60 cells at 0.5 to 2 uM by rhodamine 123 staining based flow cytometry analysis; conditions: dose 0.5-2 µM
# [36] = tested on: Rattus norvegicus; assay: Anti-hyperuricemic activity against potassium oxonate-induced hyperuricemia Wistar rat model assessed as increase in RBC at 5 mg/kg measured after 14 days; assay type: functional, organism-based; conditions: time 14.0 day
# [37] = tested on: NCI-H1975; assay type: functional, cell-based; conditions: Homo sapiens, NCI-H1975, 48 h
# [38] = tested on: MDA-MB-231; assay: Induction of autophagy in human MDA-MB-231 cells assessed as upregulation of LC3-II expression level at 1 to 4 uM by Western blotting assay; assay type: functional, cell-based; conditions: dose 1-4 µM
# [39] = tested on: HH; assay: Cytotoxicity against human HH cells incubated for 1 day by MTT assay; assay type: functional, cell-based; conditions: 24 h
# [40] = tested on: MDA-MB-231; assay: cells; conditions: Homo sapiens, MDA-MB-231, 48 h
# Description: Cytotoxicity against human MDA-MB-231 cells incubated for 48 hrs by MTT assay
# [41] = tested on: Rattus norvegicus; assay: Anti-hyperuricemic activity against potassium oxonate-induced hyperuricemia Wistar rat model assessed as improvement in renal condition at 5 mg/kg by measuring decrease in enlargement of tubular cells measured after 14 days by H and E staining based assay; assay type: functional, organism-based; conditions: time 14.0 day
# [42] = tested on: Rattus norvegicus; assay: Anti-hyperuricemic activity against potassium oxonate-induced hyperuricemia Wistar rat model assessed as improvement in renal condition at 2.5 mg/kg measured after 14 days by H and E staining based assay; assay type: functional, organism-based; conditions: time 14.0 day
# [43] = tested on: HL-60; assay type: functional, cell-based; conditions: Homo sapiens, HL-60, 48 h
# Sequence of Xanthine dehydrogenase/oxidase (P80457 whole entry): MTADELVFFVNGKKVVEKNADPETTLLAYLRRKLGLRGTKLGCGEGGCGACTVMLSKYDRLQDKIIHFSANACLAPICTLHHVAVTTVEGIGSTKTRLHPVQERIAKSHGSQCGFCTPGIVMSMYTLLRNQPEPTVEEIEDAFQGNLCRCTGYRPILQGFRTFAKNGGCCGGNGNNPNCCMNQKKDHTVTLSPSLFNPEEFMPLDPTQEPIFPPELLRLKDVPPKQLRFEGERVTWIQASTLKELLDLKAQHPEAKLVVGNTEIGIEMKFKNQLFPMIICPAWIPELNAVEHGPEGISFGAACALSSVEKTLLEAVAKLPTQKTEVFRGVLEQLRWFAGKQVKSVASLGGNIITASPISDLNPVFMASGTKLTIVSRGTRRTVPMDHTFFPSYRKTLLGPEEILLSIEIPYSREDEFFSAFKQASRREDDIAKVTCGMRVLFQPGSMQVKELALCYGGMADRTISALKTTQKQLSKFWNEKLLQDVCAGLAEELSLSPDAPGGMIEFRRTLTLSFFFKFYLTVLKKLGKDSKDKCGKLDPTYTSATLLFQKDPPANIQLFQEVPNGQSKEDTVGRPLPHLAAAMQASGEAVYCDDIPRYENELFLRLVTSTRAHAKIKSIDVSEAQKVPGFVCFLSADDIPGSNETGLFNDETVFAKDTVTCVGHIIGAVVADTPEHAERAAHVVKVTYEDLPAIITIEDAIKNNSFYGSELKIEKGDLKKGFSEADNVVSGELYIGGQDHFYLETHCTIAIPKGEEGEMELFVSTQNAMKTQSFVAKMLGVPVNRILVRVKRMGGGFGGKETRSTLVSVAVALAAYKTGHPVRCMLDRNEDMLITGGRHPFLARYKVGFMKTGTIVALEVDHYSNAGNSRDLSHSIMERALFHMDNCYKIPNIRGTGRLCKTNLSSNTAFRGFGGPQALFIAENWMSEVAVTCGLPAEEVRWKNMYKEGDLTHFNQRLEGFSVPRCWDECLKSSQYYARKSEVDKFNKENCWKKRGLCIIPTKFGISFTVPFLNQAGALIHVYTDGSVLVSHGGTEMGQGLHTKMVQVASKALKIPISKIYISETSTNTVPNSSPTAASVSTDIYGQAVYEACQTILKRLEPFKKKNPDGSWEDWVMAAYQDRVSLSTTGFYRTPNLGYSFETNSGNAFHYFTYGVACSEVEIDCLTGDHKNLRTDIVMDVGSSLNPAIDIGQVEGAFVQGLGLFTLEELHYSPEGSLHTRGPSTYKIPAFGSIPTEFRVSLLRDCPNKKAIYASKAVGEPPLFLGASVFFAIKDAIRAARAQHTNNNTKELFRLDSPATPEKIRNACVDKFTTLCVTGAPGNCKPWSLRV
smiles,measurement,setting,value
Cc1nc(-c2ccc(OCC(C)C)c(C#N)c2)sc1C(=O)NCCCCCCC(=O)NO,Activity,[1],Dose-dependent-effect
same,IC50,[2],706 nM
same,Activity,[3],Active
same,Activity,[4],Dose-dependent-effect
same,Activity,[5],Dose-dependent-effect
same,Activity,[6],Active
same,Activity,[7],Active
same,Activity,[8],Active
same,Activity,[9],Active
same,Activity,[10],Active
same,IC50,[11],6.6 nM
same,Activity,[12],Active
same,Activity,[13],Active
same,Activity,[14],Active
same,Activity,[15],Active
same,Activity,[16],Active
same,Activity,[17],Active
same,Activity,[18],Active
same,Activity,[19],Active
same,Activity,[20],Active
same,Activity,[21],Active
same,Activity,[22],Active
same,Activity,[23],Active; Activity More Potent Than Saha
same,Activity,[24],Active; Activity More Potent Than Saha
same,IC50 at 1 day,[25],2230 nM
same,Activity,[26],Active
same,Activity,[27],Active
same,Activity,[28],inactive
same,Activity,[29],Active
same,Activity,[30],Active
same,Activity,[31],Active
same,Activity,[32],Active
same,Activity,[33],Dose-dependent-effect
same,Activity,[34],inactive
same,Activity,[35],Active
same,Activity,[36],Active
same,IC50,[37],5440 nM
same,Activity,[38],Active
same,IC50,[39],1090 nM
same,IC50,[40],2940 nM
same,Activity,[41],Active
same,Activity,[42],inactive
same,IC50,[43],706 nM
